Assay results published in patent publication US4000293A, “Method of inhibiting bacterial growth with certain selected 3-chloro-2-oxazolidinones” (Interx Research Corporation, priority 1975, dated 1976).

How the values were obtained:
[1] = system: Staphylococcus aureus ATCC 6538; experiment: germicidal efficiency test (modified serial dilution; time to complete sterilization), Table A; type: cell-based; conditions: pH 7.0
Protocol: The compounds are thus useful as bactericidal agents.
(§1) The compounds of the invention and certain reference compounds were tested in the germidical efficiency test, a modification of the standard serial dilution test, against Staphylococcus aureus ATCC 6538. In the germicidal efficiency test, instead of determining the minimum inhibitory concentration as in the serial dilution test procedure, the time required to effect complete sterilization of the micro-organism when exposed to a given concentration of the test substance is determined. This procedure affords a basis of comparison of the time dependent efficacies of the various test substances which gives a measure not only of the germidical efficacy of the test species but, since as will be seen germicidal efficiency of the N-chloro compounds generally tends to diminish with time, apparently owing to decomposition of, and therefore dilution of, the active species, the test procedure also provides an indication of the efficacy to be expected at varying time intervals after solution of the test species in the application medium. The test procedure is described as follows: A stock solution of known concentration of each compound to be tested was prepared in 0.1M sodium dihydrogen phosphate buffered to pH 7.0. To 5 ml. of the test solution was added 0.2 ml. of an overnight broth culture containing from 6×10^6 to 8×10^6 organisms/ml. of Staphylococcus aureus ATCC 6538 and 5 g. of gelysate peptone and 3 g. of beef extract per 1000 ml. of water. At time intervals of 0.5, 1, 2, 3, 4, 5, 6, 7, 8, 9, 10, 15 and 30 minutes, a loop of this suspension was subcultured into 5 ml. of sterile nutrient broth (5 g. of gelysate peptone and 3 g. of beef extract/1000 ml. of water), and the samples were incubated at 37° C. for 7 days with daily observation for evidence of bacterial growth. The time interval in which no bacterial growth was observed after the incubation period in a particular sample was recorded as the end point.
(§2) The germicidal kill times so-obtained at various concentrations of the compounds of the invention and of certain reference compounds are given in Table A below. The compounds are identified in each case by the Example number above where the compounds are described. Here and elsewhere in the specification that follows, concentrations are expressed in parts per million (ppm) of "positive" chlorine, which was determined in each instance by addition of excess aqueous potassium iodide to an acidified solution of the test compound and titration of the iodine liberated with standard sodium thiosulfate solution.

[2] = system: Staphylococcus aureus ATCC 6538; experiment: contact germicidal (bactericidal) time before and after 14 day incubation of solutions at 40° C., Table B; type: cell-based; conditions: pH 7.0; for Bc Time, initial: before incubation, at initial ppm +Cl of the same line
Protocol: as §1
(§3) The stabilities and the time-dependent efficacies of the claimed and reference species were determined by comparing the contact germicidal times and the initial and final concentrations of positive chlorine in solutions of the test species in 0.1M sodium dihydrogen phosphate buffered to pH 7.0 before and after 14 day incubation of the solutions at 40° C. The results are given in Table B below, where the columns headed "Bc Time" refers to the bactericidal time in minutes.

[3] = positive chlorine concentration before and after 14 day incubation of solutions at pH 7.0, 40° C., Table B; type: physicochemical; conditions: for Final Concn. of positive chlorine: after 14 day incubation at 40° C.; for Final Concn. of positive chlorine / Initial Concn. of positive chlorine: 0.1M phosphate pH 7.0; for Initial Concn. of positive chlorine: before incubation
Protocol: as §2, §3

[4] = hydrolytic stability in 0.1M sodium dihydrogen phosphate pH 7.0 at 40° (first-order kinetics), Table C; type: physicochemical; conditions: for half-life: 0.1m phosphate buffer; for half-life / Rate Constant k: 0.1M phosphate pH 7.0, 40°; for Rate Constant k: first-order
Protocol: A further measure of the relative stabilities of the reference and claimed species was obtained by measuring the hydrolytic stability of the various species in 0.1M sodium dihydrogen phosphate buffered to pH 7.0 at 40°. For each species, the rate of change in the concentration of positive chlorine in the solution was measured by the volume of standard thiosulfate required to titrate a series of aliquots of a standard volume of the solution at various time intervals using potassium iodide/sodium thiosulfate as detailed above. The volumes of thiosulfate required to titrate each sample so obtained were interpreted as first-order kinetic processes. The hydrolytic stabilities of the reference and claimed species under the experimental conditions were characterized by the reaction rate constants and half-lives obtained from a linear regression analysis of the experimental data. The results obtained are given in Table C below and are also shown in FIG. 1 where the volumes in milliliters of standard thiosulfate required to titrate the positive chlorine in the various samples are plotted as ordinate against time in days as abscissa.

[5] = stability in the neat state (% chlorine by iodometric titration), Table D; type: physicochemical; conditions: 40° C.
Protocol: In those instances, the data were acquired at ambient temperature (approximately 23° C.). The method used was similar to that described above in which the rate of disappearance of "positive" chlorine was followed iodometrically by titration of iodine liberated from added potassium iodide with standard sodium thiosulfate solution. Samples of the compounds were individually sealed in ampoules and stored in the dark at 23° C. or 40° C. and weighed amounts removed from time to time for analysis.
For each of the compounds analyzed as indicated above, percent chlorine was plotted as ordinate against time in days as abscissa on semi-logarithmic paper and the points connected by a smooth curve for each compound.

## CC1(C)CN(Cl)C(=O)O1 [Example 1G, 3-Chloro-5,5-dimethyl-2-oxazolidinone]
[1]; 473 ppm +Cl
  Bactericidal Time: 7 min
[2]; after 14 days at 40° C.
  bactericidal activity after the test period (in words): retained a good measure of bactericidal activity superior to each of the reference species
[2]
  Bc Time, initial: 7 min
[3]; 14 days, 40° C., pH 7.0
  decomposition over the test period (in words): substantially decomposed over the test period
[3]
  Final Concn. of positive chlorine: 43 ppm +Cl
  Initial Concn. of positive chlorine: 473 ppm +Cl
[4]; hydrolysis
  half-life: 86.6 h
  Rate Constant k: 0.008 h⁻¹
[4]; hydrolysis, pH 7.0, 40°
  half-life relative to the half-lives of the reference species: around twice to eight times as great
[4]; pH 7.0, 40°
  hydrolytic stability (in words): somewhat less stable than the corresponding 4,4-dimethyl compound
[5]; 0 Days
  % Cl, neat: 19.6%
[5]; 1 Day
  % Cl, neat: 22.1%
[5]; 4 Days
  % Cl, neat: 23.7%
[5]; 7 Days
  % Cl, neat: 16.5%
[5]; 11 Days
  % Cl, neat: 18.1%
[5]; 15 Days
  % Cl, neat: 14.4%
[5]; 19 Days
  % Cl, neat: 10.0%
[5]; 22 Days
  % Cl, neat: 0%
[5]; neat
  stability in the neat state (in words): surprising stability

## O=C1OCCN1Cl [Example 1A, 3-chloro-2-oxazolidinone]
[1]; 157 ppm +Cl
  Bactericidal Time: 7 min
[1]; 281 ppm +Cl
  Bactericidal Time: 2 min
[1]; 465 ppm +Cl
  Bactericidal Time: 1 min
[2]; after 14 day incubation at 40° C.
  Bc Time, final: > 30 min
[2]
  Bc Time, initial: 1 min
[3]
  Final Concn. of positive chlorine: 30 ppm +Cl
  Initial Concn. of positive chlorine: 465 ppm +Cl
[4]; hydrolysis
  half-life: 45 h
  Rate Constant k: 0.0155 h⁻¹
[5]; 0 Hrs.
  % Cl, neat: 28.9%
[5]; 2 Hrs.
  % Cl, neat: 27.4%
[5]; 18.5 Hrs.
  % Cl, neat: 25.9%
[5]; 24 Hrs.
  % Cl, neat: 26.9%
[5]; 54 Hrs.
  % Cl, neat: 27.2%
[5]; 72 Hrs.
  % Cl, neat: 24.8%
[5]; 80 Hrs.
  % Cl, neat: 23.5%
[5]; 98 Hrs.
  % Cl, neat: 26.2%
[5]; 144 Hrs.
  % Cl, neat: 8.7%
[5]; 168 Hrs.
  % Cl, neat: 0.4%
